Results on 14 molecules are retold here after patent US9796984B2, “Protection against herbivores” (priority 2004, dated 2017).

SMILES strings stand for the structures. Read-outs that look alike come from different tables or passages of the source.

In experiment [1] the test system is LeARG1. Briefly: Effect of various compounds on arginase activity, LeARG1. Type of experiment: biochemical, Lycopersicon esculentum (tomato). On the procedure:
(§1) Homogenates were centrifuged at 20,000×g for 10 min at 4° C., and the supernatants were used as the enzyme source. Recombinant LeARG enzyme was prepared as described above. Protein concentrations were determined as described above. Arginase activity was measured with a spectrophotometric assay for detection of urea (Alabadi et al., Plant Physiol. 112:1237-1244 (1996)), with minor modifications. The enzyme solution was activated with 1 mM MnCl2 at 37° C. for 60 min. […] Reactions were carried out at 37° C. for 20 min and stopped by the addition of 500 μl of 15% (v/v) perchloric acid. A 200-μl aliquot was mixed vigorously with 3 ml of acid mixture [9% (v/v) of phosphoric acid and 27% (v/v) of sulfuric acid] and 100 μl of 3% (w/v) α-isonitrosopropiophenone (Sigma) in 95% ethanol. This mixture was heated in a boiling water bath in the dark for 60 min and cooled for 10 min to room temperature. The OD540 was recorded on a Uvikon 933 spectrophotometer (Research Instruments, San Diego, Calif.). Substrate specificity tests were performed as described above with the exception that agmatine and other related compounds were added in place of L-arginine, to a final concentration of 250 mM. Substrates tested were obtained from Sigma. […] Inhibitor studies were conducted with test compounds that were dissolved in water and then diluted into the assay buffer at various concentrations prior to addition of enzyme. For example, 1 μl of a 5-mM L-NOHA stock was added to 489 μl of assay buffer, followed by addition of 10 μl of enzyme solution. The reaction was carried out as described above. L-NOHA was obtained from Cayman Chemical (Ann Arbor, Mich.). [table]

The subject of experiment [2] is LeARG2. Kind of experiment: Effect of various compounds on arginase activity, LeARG2. Type of experiment: biochemical, Lycopersicon esculentum (tomato). As to the method: as §1
In experiment [3] the test system is LeARG1. Briefly: Substrate specificity of tomato arginases (urea detection), recombinant LeARG1. Conditions: 250 mM substrate; for Activity: 50 mM CHES pH 9.6, 2 mM MnCl2, 37° C., 30 min, mean and SD of triplet reactions; for activity relative to that obtained with L-arginine: pH 9.6. Type of experiment: biochemical, Lycopersicon esculentum (tomato).
Experiment [4] concerns LeARG2. Briefly: Substrate specificity of tomato arginases (urea detection), recombinant LeARG2. It counts as biochemical, Lycopersicon esculentum (tomato). Conditions: 250 mM substrate; for Activity: 50 mM CHES pH 9.6, 2 mM MnCl2, 37° C., 30 min, mean and SD of triplet reactions; for activity relative to that obtained with L-arginine: pH 9.6.
In another experiment the target is T1, Bovine arginase (Bos taurus, UniProt Q2KJ64).
T1 sequence (Q2KJ64 1-322): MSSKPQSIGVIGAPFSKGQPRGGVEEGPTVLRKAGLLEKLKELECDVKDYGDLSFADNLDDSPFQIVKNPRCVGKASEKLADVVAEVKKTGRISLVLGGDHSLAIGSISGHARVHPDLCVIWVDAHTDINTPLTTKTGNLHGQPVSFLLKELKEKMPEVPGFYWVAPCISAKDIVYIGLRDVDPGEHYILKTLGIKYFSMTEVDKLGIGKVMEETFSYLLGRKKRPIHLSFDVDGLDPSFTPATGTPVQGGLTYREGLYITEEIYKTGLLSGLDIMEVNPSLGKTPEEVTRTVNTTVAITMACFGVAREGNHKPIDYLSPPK
Kind of experiment: Substrate specificity (urea detection), bovine arginase. To be noted: 250 mM substrate; for Activity: 50 mM CHES pH 9.6, 2 mM MnCl2, 37° C., 30 min, mean and SD of triplet reactions; for activity relative to that obtained with L-arginine: pH 9.6. It counts as biochemical.

The next experiment relates to arginase activity. Kind of experiment: L-arginase activity in tomato leaf protein extracts. Type of experiment: biochemical, Lycopersicon esculentum (tomato). Conditions: exogenous MeJA vapor.
The subject of experiment [5] is LeARG2. Kind of experiment: RNA blot analysis of LeARG2 transcripts in treated tomato leaves. Further details: species or system Lycopersicon esculentum (tomato). Conditions: in vivo.
In experiment [6] the test system is LeARG1. Briefly: RNA blot analysis of LeARG1 transcripts in treated tomato leaves. Details: species or system Lycopersicon esculentum (tomato). Conditions: in vivo.
Another experiment addresses tomato arginase. Kind of experiment: Inhibition of tomato arginase by NOHA. Type of experiment: biochemical, Lycopersicon esculentum (tomato). On the procedure: as §1, with “Mich.).” for “Mich.). [table]”
For experiment [7], the target named is T2, threonine deaminase (TD) (Solanum lycopersicum, UniProt P25306).
T2 construct: from tissue; host or cells: desalted crude extracts of methyl-JA-treated tomato leaves, and of midgut content of M. sexta larvae reared on WT tomato
T2 sequence (P25306 52-418): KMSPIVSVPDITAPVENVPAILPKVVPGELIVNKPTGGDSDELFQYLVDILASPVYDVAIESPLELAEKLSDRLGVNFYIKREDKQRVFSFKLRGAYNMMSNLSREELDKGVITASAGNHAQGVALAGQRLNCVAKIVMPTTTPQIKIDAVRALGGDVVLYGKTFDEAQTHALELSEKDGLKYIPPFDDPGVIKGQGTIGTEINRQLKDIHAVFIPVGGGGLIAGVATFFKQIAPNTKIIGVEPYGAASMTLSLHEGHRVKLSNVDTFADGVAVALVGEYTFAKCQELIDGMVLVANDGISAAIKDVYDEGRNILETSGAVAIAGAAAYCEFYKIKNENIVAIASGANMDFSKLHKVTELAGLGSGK
Type of experiment: biochemical. Conditions: midgut extracts of larvae grown on WT plants; Ile up to mM.

Experiment [8] deals with threonine deaminase (TD). Type of experiment: biochemical. Conditions: extracts of methyl-JA-treated tomato leaves.
The mark [9] stands for this setting: compound 5.0 mM, 25 mM L-arginine, % of control reaction.
The mark [10] stands for this setting: compound 0.2 mM, 25 mM L-arginine, % of control reaction.

Take `O=C(O)CS` [Mercaptoacetate]: the “Relative activity (%)” value with LeARG1 [1] (setting [9]) stood at 28%; in the experiment on LeARG2 [2] (setting [9]) it was 26%.
`N=C(N)NCCC[C@H](N)C(=O)O` [L-Arginine]: the Activity with LeARG1 [3] is given as 8848 ± 177 μmol/mg protein/h; with LeARG2 [4], 7016 ± 86 μmol/mg protein/h; on Bovine arginase, 6608 ± 351 μmol/mg protein/h. Further, the “activity relative to that obtained with L-arginine” value (shortened to “activity relative to that obtained”) in the experiment with LeARG1 [3], in the experiment with LeARG2 [4] and at Bovine arginase was “(100%)” throughout.
As for `OCCS` [2-Mercaptoethanol], the “Relative activity (%)” value came out at 81% in the experiment on LeARG1 [1] and 80% in the experiment on LeARG2 [2].
For `O=C(O)CCS` [3 -Mercaptopropionate], the “Relative activity (%)” value in the experiment with LeARG1 [1] (setting [9]) is recorded as 24%; with LeARG2 [2] (setting [9]), 26%.
For `CC/C=C\CC1C(=O)CCC1CC(=O)OC` (centres unmarked) [MeJA], in the experiment with arginase activity, the “arginase activity in leaves after treatment” value is reported as “increase”. Also, in the experiment with LeARG2 [5], the “LeARG2 expression in leaves” value is given as “strongly elicited”. Moreover, in the experiment with LeARG1 [6], the “LeARG1 expression in leaves” value is “low level”.
`N=C(N)NCCC[C@@H](N)C(=O)O` [D-Arginine]: the Activity was found to be 195 ± 2 μmol/mg protein/h in the experiment with LeARG1 [3], 250 ± 5 μmol/mg protein/h in the experiment with LeARG2 [4] and 32 ± 13 μmol/mg protein/h on Bovine arginase. In addition, the figures for the “activity relative to that obtained” value with LeARG1 [3], in the experiment on LeARG2 [4] and on Bovine arginase were “(2.2%)”, “(3.6%)” and “(0.5%)”, respectively.
For the molecule `N=C(N)NCCCCN` [Agmatine], the Activity was 40 ± 3 μmol/mg protein/h with LeARG1 [3], 41 ± 6 μmol/mg protein/h in the experiment on LeARG2 [4] and 12 ± 2 μmol/mg protein/h on Bovine arginase. The “activity relative to that obtained” value in the experiment on LeARG1 [3] is given as “(0.5%)”; in the experiment on LeARG2 [4], “(0.6%)”; at Bovine arginase, “(0.2%)”.
On to `CC(S)C(=O)O` (centres unmarked) [2-Mercaptopropionate], for which the “Relative activity (%)” value in the experiment with LeARG1 [1] (setting [9]) and in the experiment on LeARG2 [2] (setting [9]) was 38% in each case.
For the molecule `CC[C@H]1C=C(C(=O)N[C@@]2(C(=O)O)C[C@@H]2CC)[C@H]2CCC(=O)[C@H]2C1` [COR, coronatine], in the experiment on LeARG2 [5], the “LeARG2 expression in leaves” value is “necessary and sufficient”. Further, in the experiment with LeARG1 [6], the “LeARG1 expression in leaves” value is “not induced”.
For orientation: Ki means the dissociation constant of the complex between target and ligand, obtained from inhibition or displacement. Lower therefore signals a stronger hold on the target. On to `NC(=NCCC[C@H](N)C(=O)O)NO` [L-NOHA, N^G-hydroxy-L-arginine], for which the figures for the “Relative activity (%)” value in the experiment with LeARG1 [1] (setting [10]) and with LeARG2 [2] (setting [10]) were 7% and 5%, respectively. The “Ki lower than the Km for L-arginine” value on tomato arginase is given as “more than 1000 fold”. In addition, the mode of inhibition result in the experiment on tomato arginase (plant and non-plant arginases) is reported as “competitive inhibitor”. Further, the Ki on tomato arginase (plant enzymes (LeARG1 and LeARG2)) was roughly 14 µM.
As to `N=C(N)NCCCC[C@H](N)C(=O)O` [Homoarginine], in the experiment with LeARG1 [3], the Activity worked out at 1269 ± 2 μmol/mg protein/h and the “activity relative to that obtained” value was “(14%)”. Further, in the experiment on LeARG2 [4], the Activity turned out to be 916 ± 16 μmol/mg protein/h and the “activity relative to that obtained” value is listed as “(13%)”.
As to `N=C(N)NOCC[C@H](N)C(=O)O` [Canavanine], the results for the Activity with LeARG1 [3], in the experiment on LeARG2 [4] and on Bovine arginase were 3 ± 1 μmol/mg protein/h, 9 ± 1 μmol/mg protein/h and 14 ± 2 μmol/mg protein/h, respectively. In addition, the “activity relative to that obtained” value in the experiment with LeARG1 [3] is listed as “(<0.1%)”; with LeARG2 [4] it was “(0.1%)”; on Bovine arginase it was “(0.2%)”.
As for `NCCC[C@H](N)C(=O)O` [L- Ornithine], the “Relative activity (%)” value turned out to be 72% in the experiment on LeARG1 [1] (setting [9]) and 88% in the experiment on LeARG2 [2] (setting [9]).
`CC[C@H](C)[C@H](N)C(=O)O` [Ile, isoleucine]: the “TD activity in the presence of Ile” value is reported as “not significantly inhibited” at threonine deaminase (TD) [7] and “strongly inhibited” with threonine deaminase (TD) [8].
